Source: patent US11180504B2 (ORCHID PHARMA LTD., priority 2016, dated 2021)
Converted amounts (≈) assume the structure as drawn. Read-outs that look alike come from different tables or passages of the source.

Legend:
[1] = tested on: methicillin-sensitive Staphylococcus aureus; assay: MIC by broth micro-dilution (CLSI), methicillin-sensitive S. aureus; format: cell-based; settings: MSSA S. aureus ATCC29213
[2] = tested on: carbapenem sensitive Pseudomonas aeruginosa; assay: MIC by broth micro-dilution (CLSI), carbapenem sensitive P. aeruginosa; format: cell-based
[3] = tested on: carbapenem sensitive Escherichia coli; assay: MIC by broth micro-dilution (CLSI), carbapenem sensitive E. coli; format: cell-based
[4] = tested on: carbapenemase producing K. pneumoniae; assay: MIC by broth micro-dilution (CLSI), carbapenemase producing K. pneumoniae; format: cell-based, Klebsiella pneumoniae
[5] = Staphylococcus aureus, ATCC 29213 / MSSA, read-out: MIC
[6] = Pseudomonas aeruginosa, ATCC27853, Meropenem susceptible P. aeruginosa ATCC27853, read-out: MIC
[7] = Escherichia coli, ATCC25922, ESBL −ve E. coli ATCC25922, read-out: MIC
[8] = Klebsiella pneumoniae, ATCCBAA1705, KPC-2 K. pneumoniae ATCC BAA-1705, read-out: MIC

SMILES | MIC [1, 5] [µg/mL] | MIC [2, 6] [µg/mL] | MIC [3, 7] [µg/mL] | MIC [4, 8] [µg/mL] | MIC [1] [µg/mL] | MIC ([2]; Meropenem susceptible P. aeruginosa ATCC27853) [µg/mL] | MIC ([3]; ESBL −ve E. coli ATCC25922) [µg/mL] | MIC ([4]; KPC-2 K. pneumoniae ATCC BAA-1705) [µg/mL]
C[C@@H](NC(=O)Cn1cnnn1)[C@H]1C(=O)N2C(C(=O)O)=C(SC3CN(C(=N)N)C3)[C@H](C)[C@H]12 [Example 515, (4R,5S,6R)-6-((R)-1-(2-(1H-tetrazol-1-yl)acetamido)ethyl)-3-(1-carbamimidoylazetidin-3-ylthio)-4-methyl-7-oxo-1-azabicyclo[3.2.0]hept-2-ene-2-carboxylic acid] | 2 (≈ 4.45 µM) | 16 (≈ 35.6 µM) | 0.25 (≈ 0.556 µM) | 1 (≈ 2.22 µM) | – | – | – | –
CNC[C@@H]1CCCN1CC(=O)N[C@H](C)[C@H]1C(=O)N2C(C(=O)O)=C(S[C@@H]3CN[C@H](C(=O)N(C)C)C3)[C@H](C)[C@H]12 [Example 520, (4R,5S,6R)-3-((3S,5S)-5-(dimethylcarbamoyl)pyrrolidin-3-ylthio)-4-methyl-6-((R)-1-(2-((S)-2-((methylamino)methyl)pyrrolidin-1-yl)acetamido)ethyl)-7-oxo-1-azabicyclo[3.2.0]hept-2-ene-2-carboxylic acid] | 16 (≈ 29.8 µM) | > 128 | 2 (≈ 3.73 µM) | 16 (≈ 29.8 µM) | – | – | – | –
C[C@@H](NC(=O)Cn1cnnn1)[C@H]1C(=O)N2C(C(=O)O)=C(S[C@@H]3CN[C@H](C(=O)N4CC[C@@H](N)[C@H]4CO)C3)[C@H](C)[C@H]12 [Example 523, (4R,5S,6R)-6-((R)-1-(2-(1H-tetrazol-1-yl)acetamido)ethyl)-3-((3S,5S)-5-((2S,3R)-3-amino-2-(hydroxymethyl)pyrrolidine-1-carbonyl)pyrrolidin-3-ylthio)-4-methyl-7-oxo-1-azabicyclo[3.2.0]hept-2-ene-2-carboxylic acid] | – | – | – | – | 2 (≈ 3.55 µM) | 1 (≈ 1.77 µM) | 0.125 (≈ 0.222 µM) | 1 (≈ 1.77 µM)
C[C@@H](NC(=O)Cn1cnnn1)[C@H]1C(=O)N2C(C(=O)O)=C(S[C@@H]3CN[C@H](C(=O)N4C[C@H]5C[C@H](N)C[C@@]5(CO)C4)C3)[C@H](C)[C@H]12 [Example 526, (4R,5S,6R)-6-((R)-1-(2-(1H-tetrazol-1-yl)acetamido)ethyl)-3-((3S,5S)-5-((3aS,5S,6aS)-5-amino-3a-(hydroxymethyl)octahydrocyclopenta[c]pyrrole-2-carbonyl)pyrrolidin-3-ylthio)-4-methyl-7-oxo-1-azabicyclo[3.2.0]hept-2-ene-2-carboxylic acid] | 4 (≈ 6.63 µM) | 1 (≈ 1.66 µM) | 0.25 (≈ 0.414 µM) | 2 (≈ 3.31 µM) | – | – | – | –
C[C@@H](NC(=O)Cn1cnnn1)[C@H]1C(=O)N2C(C(=O)O)=C(S[C@@H]3CN[C@H](C(=O)N4C[C@@H]5C[C@@H](N)C[C@]5(CO)C4)C3)[C@H](C)[C@H]12 [Example 529, (4R,5S,6R)-6-((R)-1-(2-(1H-tetrazol-1-yl)acetamido)ethyl)-3-((3S,5S)-5-((3aR,5R,6aR)-5-amino-3a-(hydroxymethyl)octahydrocyclopenta[c]pyrrole-2-carbonyl)pyrrolidin-3-ylthio)-4-methyl-7-oxo-1-azabicyclo[3.2.0]hept-2-ene-2-carboxylic acid] | 4 (≈ 6.63 µM) | 1 (≈ 1.66 µM) | 0.25 (≈ 0.414 µM) | 2 (≈ 3.31 µM) | – | – | – | –

The remaining molecules from weak to strong by MIC [1, 5], led by results:

MIC [1, 5] [µg/mL] | MIC [2, 6] [µg/mL] | MIC [3, 7] [µg/mL] | MIC [4, 8] [µg/mL] | MIC [1] [µg/mL] | MIC ([2]; Meropenem susceptible P. aeruginosa ATCC27853) [µg/mL] | MIC ([3]; ESBL −ve E. coli ATCC25922) [µg/mL] | MIC ([4]; KPC-2 K. pneumoniae ATCC BAA-1705) [µg/mL] | SMILES
16 (≈ 23.6 µM) | 32 (≈ 47.1 µM) | 0.5 (≈ 0.737 µM) | 16 (≈ 23.6 µM) | – | – | – | – | C[C@@H](NC(=O)/C(=N\OC(C)(C)C(=O)O)c1csc(N)n1)[C@H]1C(=O)N2C(C(=O)O)=C(S[C@@H]3CN[C@H](C(=O)N4CC[C@@H](N)C4)C3)[C@H](C)[C@H]12 [Example 514, (4R,5S,6R)-3-((3S,5S)-5-((R)-3-aminopyrrolidine-1-carbonyl)pyrrolidin-3-ylthio)-6-((R)-1-((Z)-2-(2-aminothiazol-4-yl)-2-(2-carboxypropan-2-yloxyimino)acetamido)ethyl)-4-methyl-7-oxo-1-azabicyclo[3.2.0]hept-2-ene-2-carboxylic acid]
8 (≈ 16.1 µM) | 128 (≈ 257 µM) | 1 (≈ 2.01 µM) | 4 (≈ 8.04 µM) | – | – | – | – | COCCNCC(=O)N[C@H](C)[C@H]1C(=O)N2C(C(=O)O)=C(S[C@@H]3CN[C@H](C(=O)N(C)C)C3)[C@H](C)[C@H]12 [Example 518, (4R,5S,6R)-3-((3S,5S)-5-(dimethylcarbamoyl)pyrrolidin-3-ylthio)-6-((R)-1-(2-(2-methoxyethylamino)acetamido)ethyl)-4-methyl-7-oxo-1-azabicyclo[3.2.0]hept-2-ene-2-carboxylic acid]
4 (≈ 6.78 µM) | 4 (≈ 6.78 µM) | 0.5 (≈ 0.848 µM) | 2 (≈ 3.39 µM) | – | – | – | – | C[C@@H](NC(=O)Cn1cnnn1)[C@H]1C(=O)N2C(C(=O)O)=C(S[C@@H]3CN[C@H](C(=O)N4CCCN(C(=N)N)CC4)C3)[C@H](C)[C@H]12 [Example 517, (4R,5S,6R)-6-((R)-1-(2-(1H-tetrazol-1-yl)acetamido)ethyl)-3-((3S,5S)-5-(4-carbamimidoyl-1,4-diazepane-1-carbonyl)pyrrolidin-3-ylthio)-4-methyl-7-oxo-1-azabocyclo[3.2.0]hept-2-ene-2-carboxylic acid]
4 (≈ 7.1 µM) | 1 (≈ 1.77 µM) | 0.25 (≈ 0.444 µM) | 2 (≈ 3.55 µM) | – | – | – | – | C[C@@H](NC(=O)Cn1cnnn1)[C@H]1C(=O)N2C(C(=O)O)=C(S[C@@H]3CN[C@H](C(=O)N4CC[C@@H](N)[C@H]4CO)C3)[C@H](C)[C@H]12 [Example 522, (4R,5S,6R)-6-((R)-1-(2-(1H-tetrazol-1-yl)acetamido)ethyl)-3-((3S,5S)-5-((2S,3R)-3-amino-2-(hydroxymethyl)pyrrolidine-1-carbonyl)pyrrolidin-3-ylthio)-4-methyl-7-oxo-1-azabicyclo[3.2.0]hept-2-ene-2-carboxylic acid]
4 (≈ 6.78 µM) | 1 (≈ 1.7 µM) | 0.25 (≈ 0.424 µM) | 2 (≈ 3.39 µM) | – | – | – | – | C[C@@H](NC(=O)Cn1cnnn1)[C@H]1C(=O)N2C(C(=O)O)=C(S[C@@H]3CN[C@H](C(=O)N4C[C@H]5CNC[C@@]5(CO)C4)C3)[C@H](C)[C@H]12 [Example 524, (4R,5S,6R)-6-((R)-1-(2-(1H-tetrazol-1-yl)acetamido)ethyl)-3-((3S,5S)-5-((3aR,6aR)-3a-(hydroxymethyl)octahydropyrrolo[3,4-c]pyrrole-2-carbonyl)pyrrolidin-3-ylthio)-4-methyl-7-oxo-1-azabicyclo[3.2.0]hept-2-ene-2-carboxylic acid]
4 (≈ 6.78 µM) | 0.5 (≈ 0.848 µM) | 0.25 (≈ 0.424 µM) | 2 (≈ 3.39 µM) | – | – | – | – | C[C@@H](NC(=O)Cn1cnnn1)[C@H]1C(=O)N2C(C(=O)O)=C(S[C@@H]3CN[C@H](C(=O)N4C[C@@H]5CNC[C@]5(CO)C4)C3)[C@H](C)[C@H]12 [Example 525, (4R,5S,6R)-6-((R)-1-(2-(1H-tetrazol-1-yl)acetamido)ethyl)-3-((3S,5S)-5-((3aS,6aS)-3a-(hydroxymethyl)octahydropyrrolo[3,4-c]pyrrole-2-carbonyl)pyrrolidin-3-ylthio)-4-methyl-7-oxo-1-azabicyclo[3.2.0]hept-2-ene-2-carboxylic acid]
2 (≈ 3.65 µM) | 2 (≈ 3.65 µM) | 0.25 (≈ 0.457 µM) | 2 (≈ 3.65 µM) | – | – | – | – | C[C@@H](NC(=O)Cn1cnnn1)[C@H]1C(=O)N2C(C(=O)O)=C(S[C@@H]3CN[C@H](C(=O)N4CCCNCC4)C3)[C@H](C)[C@H]12 [Example 516, (4R,5S,6R)-3-((3S,5S)-5-(1,4-diazepane-1-carbonyl)pyrrolidin-3-ylthio)-6-((R)-1-(2-(1H-tetrazol-1-yl)acetamido)ethyl)-4-methyl-7-oxo-1-azabicyclo[3.2.0]hept-2-ene-2-carboxylic acid]
